{"source": "patent US20150099003A1", "about": "“Topiramate Sustained-Release Pharmaceutical Composition, Method for Preparing Same, and Uses Thereof” (Institute of Pharmacology and Toxicology Academy of …, priority 2012, published 2015)", "key": {"[1]": {"assay": "Release rate in different dissolution media (artificial gastric fluid, water, artificial intestinal fluid)", "assay_type": "physicochemical", "conditions": "degradation reaction", "experimental": "In order to verify whether acidic, basic solvent media would influence the release rate of the sustained-release pellets of the present invention, 0.1 mol/L HCl (pH1.2) was prepared as artificial gastric fluid, […] phosphate buffer (pH6.8) was prepared as artificial intestinal fluid, and these media and water (500 ml) were used as release media, rotation speed was 100 rpm, 37° C. Samples (5 ml, supplemented with equivalent volume of media at the meantime) were taken at 1, 2, 4, 8, 12, 16, 20, 24 h, filtrated, and the subsequent filtrates were used as test solutions. High performance liquid chromatography (Appendix V D of Part II of Chinese Pharmacopoeia, 2010 Edition) was used, octylsilane-bonded silica gel was used as packing agent, 50% methanol was mobile phase, differential refractive detector was used, flow rate was 1.5 ml per minute. 200 μl of test solution was taken, injected in liquid chromatograph, the peak area of topiramate as main drug was recorded; topiramate was separately taken as control sample and measured by the same method, and accumulative release percentages of drug at different time points were calculated by external standard method."}, "[2]": {"conditions": "cited from earlier work"}, "[3]": {"conditions": "cited from earlier work", "remark": "listed apart in the source"}, "[4]": {"tested_on": "human plasma protein", "conditions": "plasma concentration range of 0.5-250 μg/ml; decreases with the increase of plasma concentration; cited from earlier work"}}, "data": [{"smiles": "CC1(C)O[C@@H]2[C@@H](CO[C@@]3(COS(N)(=O)=O)OC(C)(C)O[C@@H]23)O1", "note": "[Topiramate, 2,3,4,5-bis-O-(1-methylethylene)-β-D-fructopyranose sulfamate]", "values": [{"measurement": "Stability of topiramate in pH1.2 artificial gastric fluid", "setting": "[1]", "value": "unstable"}, {"measurement": "Solubility in organic solvents", "setting": "[2]; acetone, chloroform, dimethylsulfoxide and ethanol", "value": "freely soluble"}, {"measurement": "Solubility in alkaline solution", "setting": "[2]; alkaline solution having pH of 9-10 such as sodium hydroxide or sodium phosphate solutions", "value": "very freely soluble"}, {"measurement": "pH value of saturated solution", "setting": "[2]; saturated solution", "value": 6.3}, {"measurement": "Solubility in water", "setting": "[2]; water, room temperature", "value": "about 9.8 mg/mL"}, {"measurement": "Solubility in water (descriptive)", "setting": "[2]; water, room temperature", "value": "very slightly soluble"}, {"measurement": "Plasma half-life", "setting": "[3]; human, in vivo", "value": "19 to 25", "unit": "h"}, {"measurement": "Clearance for oral administration", "setting": "[3]; oral administration", "value": "22 to 36", "unit": "mL/min"}, {"measurement": "Human plasma protein binding ratio", "setting": "[4]", "value": "15-41%"}]}]}
